Literature values, collected in patent publication US20040096453A1, “Methods and compositions to treat glycosaminoglycan-associated molecular interactions” (Neurochem (International) Limited, priority 1998, published 2004).

Test system: two streptococcal proteins (9,15 Kda)
Conditions: basement membranes of cardiac muscle and renal tissues; Bergey & Stenson

## heparin
  inhibition of binding of streptococcal proteins to basement membranes: completely inhibited
